Data on 4 molecules can be found in publication PMC11329753, “Human mitochondrial carriers of the SLC25 family function as monomers exchanging substrates with a ping-pong kinetic mechanism” (The EMBO Journal, 2024).

Data set [1] concerns the target T1, human aspartate/glutamate carrier 2 (AGC2, SLC25A13) (Homo sapiens, UniProt Q9UJS0).
T1 construct: N-terminal His8 tag with TEV site, tag removed by TEV cleavage; codon-optimized, expressed in Saccharomyces cerevisiae W303.1B mitochondria; purified in LMNG/cardiolipin; 74 kDa protomer, homodimer via N-terminal domains
T1 sequence (Q9UJS0 2-675): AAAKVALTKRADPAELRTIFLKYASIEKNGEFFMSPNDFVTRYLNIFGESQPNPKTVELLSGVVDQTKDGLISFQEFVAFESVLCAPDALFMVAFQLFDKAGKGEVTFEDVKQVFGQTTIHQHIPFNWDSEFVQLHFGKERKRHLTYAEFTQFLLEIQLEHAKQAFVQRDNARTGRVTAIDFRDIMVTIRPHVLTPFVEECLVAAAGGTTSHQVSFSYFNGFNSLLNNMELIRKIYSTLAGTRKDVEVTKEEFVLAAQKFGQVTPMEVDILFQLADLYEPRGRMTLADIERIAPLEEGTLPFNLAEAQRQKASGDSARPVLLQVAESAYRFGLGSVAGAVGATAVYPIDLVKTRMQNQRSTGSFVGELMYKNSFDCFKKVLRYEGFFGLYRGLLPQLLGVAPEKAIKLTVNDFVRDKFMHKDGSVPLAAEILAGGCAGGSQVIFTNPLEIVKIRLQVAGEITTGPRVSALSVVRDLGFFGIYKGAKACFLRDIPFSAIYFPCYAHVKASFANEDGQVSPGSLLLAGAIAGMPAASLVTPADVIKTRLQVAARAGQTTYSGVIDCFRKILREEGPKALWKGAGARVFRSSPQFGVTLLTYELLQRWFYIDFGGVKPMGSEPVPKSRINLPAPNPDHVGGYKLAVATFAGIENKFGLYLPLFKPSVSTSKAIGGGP
The data set can be described thus: nanoDSF thermal shift. To be noted: 10 mM aspartate; 20 mM HEPES pH 7.0, 50 mM NaCl, cardiolipin/LMNG; apo Tm 55.4 °C. Format: binding. In general terms: Differential scanning fluorimetry follows unfolding on heating by fluorescence.

In data set [2] the target is T1, human aspartate/glutamate carrier 2 (AGC2, SLC25A13). In words: […]-aspartate uptake into proteoliposomes, homo-exchange, Michaelis-Menten fit. Format: biochemical. To be noted: labelled compound; internal aspartate 0.10-1.00 mM, external 1.5-25 μM; 20 mM HEPES pH 7.4, 50 mM NaCl, 1 mM CaCl2.
In data set [3] the target is human citrate carrier (CIC, SLC25A1) (Homo sapiens, UniProt P53007). The following applies: labelled compound; internal citrate 0.10-1.00 mM, external 1.0-25 μM; 20 mM HEPES pH 7.0, 50 mM NaCl, 5 mM MgCl2.
Data set [4] addresses T2, human dicarboxylate carrier (DIC, SLC25A10) (Homo sapiens, UniProt Q9UBX3, INS1GKP).
T2 construct: GKP added at positions 2-4; N-terminal His8 tag with factor Xa site, tag removed by on-column Xa cleavage; codon-optimized, expressed in Saccharomyces cerevisiae BJ2168 mitochondria; purified in LMNG/cardiolipin; 31,923 Da; monomer
T2 sequence (Q9UBX3 with tags, fused parts or gaps INS1GKP): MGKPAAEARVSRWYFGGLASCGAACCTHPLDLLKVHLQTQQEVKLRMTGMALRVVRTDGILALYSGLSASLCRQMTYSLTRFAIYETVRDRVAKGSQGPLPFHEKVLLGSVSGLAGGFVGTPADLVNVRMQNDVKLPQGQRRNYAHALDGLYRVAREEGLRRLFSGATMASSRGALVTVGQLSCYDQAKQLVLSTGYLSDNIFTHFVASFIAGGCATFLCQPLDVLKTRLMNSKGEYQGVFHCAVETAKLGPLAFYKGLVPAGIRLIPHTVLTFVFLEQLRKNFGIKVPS
In words: nanoDSF thermal shift. To be noted: 10 mM malate; 20 mM HEPES pH 7.0, 50 mM NaCl, cardiolipin/LMNG; apo Tm 54.1 °C. In kind it is binding.

In data set [5] the target is T3, human oxoglutarate carrier (OGC, SLC25A11) (Homo sapiens, UniProt Q02978).
T3 construct: residues 2-13 deleted; N-terminal His8 tag with factor Xa site, tag removed by on-column Xa cleavage; codon-optimized, expressed in Saccharomyces cerevisiae W303.1B mitochondria; purified in LMNG/cardiolipin; 33,477 Da; monomer
T3 sequence (Q02978 14-314): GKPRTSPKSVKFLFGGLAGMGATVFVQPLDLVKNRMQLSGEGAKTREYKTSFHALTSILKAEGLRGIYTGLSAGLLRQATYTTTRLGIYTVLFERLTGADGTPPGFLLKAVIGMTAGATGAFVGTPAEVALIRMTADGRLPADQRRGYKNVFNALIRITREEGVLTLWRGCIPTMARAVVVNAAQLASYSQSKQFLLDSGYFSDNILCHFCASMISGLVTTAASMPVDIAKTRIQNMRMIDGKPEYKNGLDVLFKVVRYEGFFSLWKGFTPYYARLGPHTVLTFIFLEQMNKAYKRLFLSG
In words: […]-malate uptake into proteoliposomes, homo-exchange, Michaelis-Menten fit. The following applies: labelled compound; internal malate 0.10-1.00 mM, external 0.5-20 μM; 20 mM HEPES pH 7.0, 50 mM NaCl, 5 mM MgCl2. Format: biochemical.

The target in data set [6] is T3, human oxoglutarate carrier (OGC, SLC25A11). The data set can be described thus: nanoDSF thermal shift. In kind it is binding. To be noted: 10 mM malate; 20 mM HEPES pH 7.0, 50 mM NaCl, cardiolipin/LMNG; apo Tm 51.0 °C.
Data set [7] concerns the molecule itself. In words: SEC; 150 μL of purified carrier on Superdex 200 Increase 10/300 in buffer B (20 mM HEPES pH 7.0, 50 mM NaCl, 0.1 mg/mL tetraoleoyl cardiolipin/0.1% (w/v) lauryl maltose neopentyl glycol); sized against ferritin, aldolase, conalbumin and ovalbumin; total weight corrected for bound lipid/detergent (≈135 kDa).

Chain of human citrate carrier (CIC, SLC25A1) (P53007 13-311): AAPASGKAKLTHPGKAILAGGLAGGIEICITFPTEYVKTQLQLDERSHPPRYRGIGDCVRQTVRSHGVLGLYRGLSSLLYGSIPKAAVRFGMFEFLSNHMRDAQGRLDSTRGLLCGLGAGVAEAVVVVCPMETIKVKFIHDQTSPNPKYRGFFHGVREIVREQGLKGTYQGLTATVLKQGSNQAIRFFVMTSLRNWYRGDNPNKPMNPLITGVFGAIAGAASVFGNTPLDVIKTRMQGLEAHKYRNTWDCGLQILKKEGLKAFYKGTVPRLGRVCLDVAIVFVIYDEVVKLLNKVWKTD

In the case of `N[C@@H](CC(=O)O)C(=O)O` [aspartate], in data set [1], the thermal shift came out at 1.6 °C. In addition, in data set [2], the “apparent Km” value was “chemical gradients for (C) OGC, (F) CIC, (I) DIC, and (L) AGC2”. Consider `O=C(O)CC(O)(CC(=O)O)C(=O)O` [citrate], for which the “apparent Km” value in data set [3] is on record as “Km plotted against Vmax for the various chemical gradients for (C) OGC, (F) CIC”. In the case of `O=C(O)C[C@H](O)C(=O)O` [malate], the results for the thermal shift in data set [4] and in data set [6] were 2.5 °C and 5.6 °C, respectively. Further, in data set [5], the “apparent Km” value was “Km plotted against Vmax for the various chemical gradients for (C) OGC”.

B1: human mitochondrial aspartate/glutamate carrier 2 (natural protein, UniProt Q9UJS0 1-675, looked up)
chain: MAAAKVALTKRADPAELRTIFLKYASIEKNGEFFMSPNDFVTRYLNIFGESQPNPKTVELLSGVVDQTKDGLISFQEFVAFESVLCAPDALFMVAFQLFDKAGKGEVTFEDVKQVFGQTTIHQHIPFNWDSEFVQLHFGKERKRHLTYAEFTQFLLEIQLEHAKQAFVQRDNARTGRVTAIDFRDIMVTIRPHVLTPFVEECLVAAAGGTTSHQVSFSYFNGFNSLLNNMELIRKIYSTLAGTRKDVEVTKEEFVLAAQKFGQVTPMEVDILFQLADLYEPRGRMTLADIERIAPLEEGTLPFNLAEAQRQKASGDSARPVLLQVAESAYRFGLGSVAGAVGATAVYPIDLVKTRMQNQRSTGSFVGELMYKNSFDCFKKVLRYEGFFGLYRGLLPQLLGVAPEKAIKLTVNDFVRDKFMHKDGSVPLAAEILAGGCAGGSQVIFTNPLEIVKIRLQVAGEITTGPRVSALSVVRDLGFFGIYKGAKACFLRDIPFSAIYFPCYAHVKASFANEDGQVSPGSLLLAGAIAGMPAASLVTPADVIKTRLQVAARAGQTTYSGVIDCFRKILREEGPKALWKGAGARVFRSSPQFGVTLLTYELLQRWFYIDFGGVKPMGSEPVPKSRINLPAPNPDHVGGYKLAVATFAGIENKFGLYLPLFKPSVSTSKAIGGGP
notes: human aspartate/glutamate carrier 2 (AGC2, SLC25A13), UniProt Q9UJS0; TEV site between the His8 tag and the protein; protomers printed as 74 kDa each; also called AGC2; SLC25A13; not shown: His8, N-terminal, cleaved
Consider B1, for which the “stoichiometry N” value in data set [7] is 2.

Broadly, the stoichiometry N is the number of molecules, sites or subunits per partner or assembly.
